Laboratory results: PMC10301432, “Antiplasmodial, Trypanocidal, and Genotoxicity In Vitro Assessment of New Hybrid α,α-Difluorophenylacetamide-statin Derivatives” (Pharmaceuticals, 2023)
Entries after “also recorded” stand apart in the source; their conditions may differ. Where two headings read alike, the source gives them in different places.

What was measured:
T. cruzi = experiment: Trypanocidal in vitro phenotypic screening, overall outcome; assay type: cell-based, Trypanosoma cruzi; settings: summarized outcome
Description: Bloodstream trypomastigote forms (BT) of the Y strain were obtained from infected albino Swiss mice at the peak of parasitemia, isolated by differential centrifugation and resuspended in DMEM to a parasite concentration of 10^7 cells/mL in the presence of 10% of mouse blood. This suspension (100 µL) was added in the same volume of 13 (a–d) and 14 (a–d) previously prepared at twice the desired final concentrations.
(§1) Tissue culture-derived trypomastigotes (Tulahuen strain expressing the E. coli β-galactosidase gene) were maintained in L929 cell lines and collected from the supernatant after 96 h of parasite infection, following previously established protocols. Briefly, after 24 h of L929 platting (4 × 10^3 cells/well), the cultures were incubated with trypomastigotes (10:1 parasite/host cell ratio) for 2 h at 37 °C. Then, the cell cultures were rinsed to remove non-internalized parasites and then further incubated for 24 h at 37 °C. Then the infected cultures were followed using two sequential protocols. […] After this period, 50 µL chlorophenol red glycoside (500 µM) in 0.5% Nonidet P40 was added to each well and the plate was incubated for more than 18 h at 37 °C, after which the absorbance was measured at 570 nm. Then, the compounds were next evaluated using dose–response assays in which Tulahuen-infected-L929 cells were exposed to different non-toxic concentrations of each compound (0–50 µM) and then after 96 h of incubation the same procedure was conducted as above reported. Controls with untreated and Bz-treated cells are run in parallel. The results were expressed as the percent difference in the reduction between treated and untreated cells.

[1] = system: S. typhimurium TA97, TA98, TA100, TA102 and TA104 strains; experiment: Salmonella/microsome assay, overall outcome; settings: all strains, −S9 and +S9; summarized outcome
Description: The mutagenicity reverse mutation test was carried out to investigate the potential of 13 (a–d) to induce genetic mutation in S. typhimurium TA97, TA98, TA100, TA102 and TA104 strains. The test was carried out according to the pre-incubation method, both in the absence and presence of a metabolic activation system (4% S9 mix, Aroclor-pre-induced, from Moltox Inc., Boone, NC, USA). DMSO 10% served as the negative control while known mutagens were used as the positive control substances. […] A dose-finding test was carried out with and without the metabolic activation system (S9 mix) for each tester strain.
For the assays without metabolic activation, 0.5 mL of 0.1 mol/L sodium-phosphate buffer (pH 7.4) was added, and for the assays in the presence of metabolic activation, 0.5 mL S9 mix was mixed with 0.1 mL culture medium (2 × 10^8 cells/mL) plus 0.1 mL of each compound solutions. The mixtures were incubated in a shaker at 37 °C (pre-incubation). After 30 min pre-incubation under light protection, the mixture was added to and mixed with 2 mL top agar containing 0.05 mmol/L L-histidine and D-biotin for the S. typhimurium strains. Each of these was then spread on a minimum glucose agar plate. After the top agar solidified, the plates were incubated at 37 °C for 60–72 h. Each tester strain was assayed in triplicate, and the number of revertant colonies was counted for each tester strain and treatment group [58].

in vitro [2] = assay type: cell-based; settings: mouse
Description: Cardiac cell cultures were incubated for 24 h at 37 °C with different concentrations of the compounds (up to 200 µM) diluted in DMEM (without phenol red). Their morphology and spontaneous contractibility were evaluated by light microscopy and then the cellular viability was determined by the PrestoBlue® assay. For this colorimetric bioassay, PrestoBlue® (Invitrogen, Waltham, MA, USA) was added to each well (using a 10:1 medium/dye), the plate was further incubated for 24 h followed by optical density (OD) measurement performed at 570 and 600 nm, as recommended by the manufacturer.

[3] = system: Salmonella enterica serovar Typhimurium TA97; experiment: Salmonella/microsome assay, TA97; settings: for mutagenicity to TA97: at concentrations above 300 µM
Description: Salmonella enterica serovar Typhimurium (S. typhimurium) strains TA97, TA98, TA100, TA104 and TA102 from the authors’ stock were used as described in the mutagenicity assay.
To determine the cytotoxic effects, after 30 min pre-incubation, the assay mixtures were diluted in 0.9% NaCl (w/v) to obtain a suspension containing 2 × 10^2 cells/mL. […] The plates were then incubated at 37 °C for 24 h and the colonies counted. All the experiments were conducted in triplicate and were repeated at least twice. Statistical differences between the groups were analyzed by a two-way ANOVA (p < 0.05) and Tukey’s post hoc test.

[4] = system: intracellular forms of T. cruzi (Tulahuen strain transfected with β-galactosidase); experiment: Activity against intracellular T. cruzi in L929 cells; assay type: cell-based, Trypanosoma cruzi; settings: for SI: LC50 (L929)/EC50 (intracellular forms); for EC50: intracellular forms, Tulahuen strain; for EC50 / 10µM (% of Parasite Lysis): 96 h; for 10µM (% of Parasite Lysis): fixed concentration 10 µM
Description: as §1, with “Then, the compounds were next evaluated using dose–response assays in which Tulahuen-infected-L929 cells were exposed to different non-toxic concentrations of each compound (0–50 µM) and then after 96 h of incubation the same procedure was conducted as above reported.” left out

in vitro [5] = assay type: cell-based; settings: human
Description: Human hepatocellular carcinoma (HepG2) and Chinese Hamster Ovary (CHO-K1) cells obtained from the American Type Culture Collection (Manassas, VA, USA) were cultured in Eagle’s medium (MEM, Gibco®, Waltham, MA, USA) containing 10% fetal bovine serum (FBS) plus 100 µg/mL streptomycin and 100 µg/mL penicillin at 37 °C in a 5% CO2 atmosphere. Logarithmic-phase cells were used in all the experiments.
Fresh HepG2 and CHO-K1 cells were seeded at a density of 1 × 10^4/well. […] Briefly, after treatment, the culture medium was replaced by 90 μL fresh culture medium and 10 μL WST-1 reagent and incubated at 37 °C and 5% CO2 for 3 h. The absorbance was then measured at 440 nm according to the kit protocol.

[6] = system: P. falciparum parasites (W2 clone) chloroquine-resistant; experiment: Antiplasmodial activity, anti-HRPII assay; assay type: cell-based, Plasmodium falciparum; settings: for SI: LC50 (HepG2)/EC50 (P. falciparum); for EC50: P. falciparum W2 clone, 24 h at 37 °C, read-out: EC50; for Antiplasmodial Activity: summarized outcome
From the text: P. falciparum W2 clone was maintained in continuous culture as previously described. […] Prior to testing, the ring-stage parasites were synchronized using sorbitol.
The test quantification was read at 450 nm on a spectrophotometer (SpectraMax340PC384, Molecular Devices Sunnyvale, CA, USA), and the drug activity was expressed as the half-maximal inhibitory concentration (EC50) compared to the drug-free controls using the curve-fitting software Origin 8.0 (OriginLab Corporation, Northampton, MA, USA).

[7] = Trypanosoma cruzi, TULAHUEN, L929, 96 h
[8] = Plasmodium falciparum, W2, 24 h

Row | Compound | Trypanocidal Activity (T. cruzi) | Bacterial Mutagenicity [1] | CC50 at 96 h (in vitro [2]) [µM] | revertant His+ colonies TA97 ([3]; +S9, 3 µM) | revertant His+ colonies TA97 ([3]; +S9, 15 µM) | revertant His+ colonies TA97 ([3]; +S9, 30 µM) | revertant His+ colonies TA97 ([3]; +S9, 150 µM) | revertant His+ colonies TA97 ([3]; +S9, 300 µM) | revertant His+ colonies TA97 ([3]; +S9, 1500 µM) | revertant His+ colonies TA97 ([3]; −S9, 3 µM) | revertant His+ colonies TA97 ([3]; −S9, 15 µM) | revertant His+ colonies TA97 ([3]; −S9, 30 µM) | revertant His+ colonies TA97 ([3]; −S9, 150 µM) | revertant His+ colonies TA97 ([3]; −S9, 300 µM) | revertant His+ colonies TA97 ([3]; −S9, 1500 µM) | EC50 [4, 7] [µM] | CC50 at 24 h (in vitro [5]) [µM] | SI [6] | EC50 [6, 8] [µM] | Antiplasmodial Activity [6] | other results
1 | CC(=O)Nc1ccc(Cl)cc1C(F)(F)C(=O)NCC[C@@H]1C[C@H](CC(=O)OC(C)(C)C)OC(C)(C)O1 [Compound 13c, tert-Butyl 2-((4R,6R)-6-(2-(2-(2-acetamido-5-chlorophenyl)-2,2-difluoroacetamido)ethyl)-2,2-dimethyl-1,3-dioxan-4-yl)acetate] | Yes | not mutagenic and No | 153 ± 25.2 | 219 ± 16 | 245 ± 22 | 247 ± 14 | 249 ± 17 | 259 ± 1 | 261 ± 13 | 81 ± 6 | 84 ± 8 | 84 ± 6 | 70 ± 6 | 71 ± 11 | 62 ± 9 | 9.24 ± 1.06 | > 1000 | >85 | < 14 | Yes | SI [4]: 16.7; EC50 [6]: 11.8 ± 2 µM
2 | CC(=O)Nc1ccc(Br)cc1C(F)(F)C(=O)NCC[C@@H]1C[C@H](CC(=O)OC(C)(C)C)OC(C)(C)O1 [Compound 13d, tert-Butyl 2-((4R,6R)-6-(2-(2-(2-acetamido-5-bromophenyl)-2,2-difluoroacetamido)ethyl)-2,2-dimethyl-1,3-dioxan-4-yl)acetate] | Yes | Yes | 114 ± 5.29 | 134 ± 3 | 135 ± 1 | 201 ± 4 | 203 ± 1 | 288 ± 6 | 410 ± 10 | 119 ± 8 | 137 ± 1 | 135 ± 4 | 134 ± 4 | 146 ± 6 | Cytotoxic | 11.4 ± 3.29 | > 1000 | Inactive | > 89 | No | mutagenicity to TA97 ([3]; +S9): significant mutagenicity; also recorded: mutagenic; mutagenicity to TA97 ([3]; −S9): significant mutagenicity; also recorded: mutagenic; SI [4]: 10
3 | CC(=O)Nc1ccccc1C(F)(F)C(=O)NCC[C@@H]1C[C@H](CC(=O)OC(C)(C)C)OC(C)(C)O1 [Compound 13a, tert-Butyl 2-((4R,6R)-6-(2-(2-(2-acetamidophenyl)-2,2-difluoroacetamido)ethyl)-2,2-dimethyl-1,3-dioxan-4-yl)acetate] | No | Yes | 112 ± 28.3 | 214 ± 21 | 217 ± 9 | 235 ± 23 | 237 ± 26 | 237 ± 4 | 290 ± 28 | 78 ± 6 | 82 ± 8 | 79 ± 8 | 69 ± 10 | 80 ± 11 | 90 ± 9 | ≥ 50 | > 1000 | Inactive | > 62 | No | 10µM (% of Parasite Lysis) [4]: 17.92 ± 11.02%; EC50 [4]: > 50 µM
4 | CC(=O)Nc1ccc(C)cc1C(F)(F)C(=O)NCC[C@@H]1C[C@H](CC(=O)OC(C)(C)C)OC(C)(C)O1 [Compound 13b, tert-Butyl 2-((4R,6R)-6-(2-(2-(2-acetamido-5-methylphenyl)-2,2-difluoroacetamido)ethyl)-2,2-dimethyl-1,3-dioxan-4-yl)acetate] | No | not mutagenic and no mutagenic potential and No | 114 ± 35.4 | 189 ± 43 | 183 ± 43 | 216 ± 47 | 231 ± 5 | 244 ± 23 | 288 ± 33 | 69 ± 12 | 76 ± 7 | 75 ± 12 | 74 ± 12 | 84 ± 7 | 89 ± 27 | ≥ 50 | > 1000 | >70 | < 14 | Yes | 10µM (% of Parasite Lysis) [4]: 25.41 ± 10.90%; EC50 [4]: > 50 µM; EC50 [6]: 14.3 ± 0.2 µM
